Measured values published in patent publication US8609417B2, “Methods and compositions for stem cell cultures” (The Regents of the University of California, priority 2009, dated 2013).

Columns and labels:
Type in all cases: cell-based, human
[1] = system: hiPS cells; assay: Clonal assay evaluated by alkaline phosphatase (ALP) assay; conditions: single cell per well, Matrigel-coated 96-well plates, blebbistatin 5 μM, 7 days
Procedure: hES or hiPS cells in mTeSR supplemented with or without blebbistatin were plated on Matrigel-coated 96-well plates at a single cell per well. Seven days after plating, cells were subjected to alkaline phosphatase assay using Alkaline Phosphatase Detection Kit (Millipore) according to the manufacturer's instruction.

[2] = system: hiPS cells; assay: Defined culture on PDL coating in mTeSR (self-renewal over passages)
Procedure: Cell culture. Two independent hES cell lines, H9 (WiCell) and BGN01 (BresaGen), were examined. hiPS cells used in the study include iPS (Foreskin) Clone 1 (WiCell) and two independently derived hiPS cells from normal human dermal fibroblasts (NHDF) which have been characterized by a series of molecular and functional assays. For the regular feeder-free culture, hES or hiPS cells were grown on Matrigel (BD Biosciences)-coated plates in a defined medium, mTeSR (StemCell Technologies). Cells were regularly passaged by the standard method using dispase (Invitrogen) or trypsin-EDTA (Lonza). General stem cell culture techniques are described in Freshney et al., Culture of Human Stem Cells (Culture of Specialized Cells), John Wiley & Sons, 1992 (the disclosure of which is incorporated herein by reference for all purposes). mES cells used in the experiment include CJ7, E14, RW4 (a parental line of NMHCIIA^−/A^− mES cells), NMHCIIA^−/A^−, and NMHCIIB^−/B^− mES cells. Cells were maintained on either mitotically inactivated mouse embryonic fibroblasts or gelatin (Sigma)-coated dishes with the standard medium in the presence of leukemia inhibitory factor (LIF) at 1400 U/ml (Millipore). For the microscopic or immunofluorescent analysis, cells were plated at approximately 5000-10000 cells/cm^2. For the defined culture, cells were plated at approximately 10000 cells/cm^2 on plates freshly coated with PDL or PDL-precoated plates (BD Bioscience) in mTeSR supplemented with 2.5 to 5 μM of blebbistatin or Y-27632. Medium was changed every day or every other day depending on confluency. Cells were passaged by using trypsin-EDTA every 3 to 4 days.

[3] = system: hiPS cells and hES cells; assay: Cell survival / embryoid body formation in low-density suspension culture; conditions: compared with Y27632
Description: While hiPS and hES cells can form cell aggregates and subsequently grow as embryoid bodies when plated at high densities on non-adhesive culture surfaces such as non-tissue culture-treated plates, they mostly undergo apoptosis when plated at low densities that prevent cells from forming aggregates. This is because human pluripotent stem cells are epithelical cells that are programmed to activate cell death signals upon detachment from culture surface (anoikis).

[4] = system: hiPS cells; assay: Cell viability under suspension culture; conditions: 2 days
Procedure: For the evaluation of cell viability under suspension culture, hES or hiPS cells were plated at 5×10^5 in non-tissue culture-treated 6-well plates with non-conditioned standard hESm containing blebbistatin or Y-27632 at different concentrations in triplicates. After 2 days, cells were harvested with trypsinization and extensive trituration by pipetting, and the number of live cells was manually counted by using hemocytometer and trypan blue staining. The cell survival ratio (%) represents the ratio of the number of live cells to the number of cells plated. The same samples were subjected to TUNEL assay for side by side comparison with the data from cell viability assay.

[5] = system: hiPS and hES cells; assay: Standard G-banded karyotyping; conditions: cells grown under blebbistatin/PDL for 20 passages
Procedure: Standard G-banded karyotyping was carried out for each cell line approximately every 10 to 20 passages.

[6] = system: hiPS cells; assay: Cell viability assay under adherence conditions (trypan blue live cell counting); conditions: 10 μM, 24 h after plating 1×10^5 cells/well, n=3
Procedure: hES or hiPS cells were plated at 1×10^5 cells/well on 12-well plates coated with PDL or Matrigel in mTeSR in the presence or absence of blebbistatin or Y-27632 at various concentrations in triplicates. DMSO (solvent for blebbistatin) was also added in the control condition and found to have no effect on viability. For mES cells, cells were plated under the same condition except for the use of gelatin coating and mES medium. After 24 h, cells were harvested, trypsinized to single cells, and counted by hemocytometer. Cell counting was performed independently by two researchers to confirm the consistency. The same samples were used for TUNEL assay immediately after taking a small fraction of the sample for cell counting.

Cc1ccc2c(c1)C(=O)C1(O)CCN(c3ccccc3)C1=N2 (stereo not shown) [blebbistatin, 1-Phenyl-1,2,3,4-tetrahydro-4-hydroxypyrrolo[2,3-b]-7-methylquinolin-4-one]
Cloning efficiency (ratio of wells with an ALP-positive colony to wells seeded) [1]: 29±1.8% | Growth and cell survival rates compared with Y27632 [2]: higher growth and cell survival rates than the cells treated with Y27632 | Cytokinesis defects such as multinucleated cells ([2]; 2.5 μM, over 15 passages): without any signs of cytokinesis defects | Minimum concentration sufficient for supporting cell-matrix interactions but not affecting cell-cell adhesions ([2]; PDL-coating, mTeSR): 2.5 µM | Cell survival in low-density suspension culture [3]: markedly increased cell survival | Effect on survival in suspension culture ([4]; hPS cells in suspension, various concentrations): higher viability than Y-27632 | Number of live cells ([4]; hiPS cells in suspension culture, 10 μM, n=3): 1.6±0.12×10^5 cells | Karyotype [5]: maintain genomic integrity | Number of viable cells ([6]; hiPS cells on Matrigel coating): 8.6±0.6×10^4 cells | Number of viable cells ([6]; hiPS cells on PDL): 7.9±0.6×10^4 cells
